# According to patent US20260184712A1, “Heterocyclic Compounds as ENT Inhibitors and Compounds for Use in the Treatment of Cancers” (iTeos Belgium SA, priority 2022, published 2026):
# Molecular target: T1, human ENT1 (Homo sapiens, UniProt Q99808)
# T1 construct: JAR cells expressing ENT1 were purchased from ATCC; host or cells: JAR cells
# T1 sequence (Q99808 1-456): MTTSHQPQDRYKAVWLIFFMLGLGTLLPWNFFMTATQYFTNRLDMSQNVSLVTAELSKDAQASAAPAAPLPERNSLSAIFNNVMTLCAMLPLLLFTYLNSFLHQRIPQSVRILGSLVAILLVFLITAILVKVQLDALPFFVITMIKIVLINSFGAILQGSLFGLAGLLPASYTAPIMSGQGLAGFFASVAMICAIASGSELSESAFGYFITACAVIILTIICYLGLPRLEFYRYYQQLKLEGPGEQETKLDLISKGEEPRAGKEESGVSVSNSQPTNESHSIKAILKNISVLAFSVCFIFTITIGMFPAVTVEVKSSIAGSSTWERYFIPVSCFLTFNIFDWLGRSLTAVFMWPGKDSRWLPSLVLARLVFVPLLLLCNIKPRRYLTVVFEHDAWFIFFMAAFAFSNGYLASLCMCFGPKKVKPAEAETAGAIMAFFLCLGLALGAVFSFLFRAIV
# Experiment: ENT1 binding assay (competition with Sahenta-DY647 on JAR cells)
# Settings: competition with SAHENTA-DY647 binding; IC50 categorized; read-out: Binding Assay IC50
# Description: Compounds of the present disclosure were assayed to show ability to bind to human ENT1. The assay is a competition between a compound of interest and Sahenta-DY647, an ENT1 inhibitor that emits fluorescence (Ex=630 nm, Em=670 nm). By measuring the fluorescence at the end of the assay, one can assess the binding potency of the compounds tested. The compounds of the present disclosure were tested and compared to known ENT inhibitors, dilazep and NBMPR:
# JAR cells expressing ENT1 were purchased from ATCC® (HTB-144TM). Cells were cultured in RPMI 1640 medium (LONZA®, #BE12-702F/U1) supplemented with 10% FBS (GIBCO®, #10270-106), 10 mM Hepes (LONZA®, #BE17-737E), 1 mM Sodium Pyruvate (LONZA®, #BE13-115E), and 2% Penicillin/Streptomycin (LONZA®, #DE17-603E) at 37° C. and 5% CO2.
# The assay was conducted with the following buffer on the day of the assay: HBSS (LONZA®, #LO-527F) supplemented with 10 mM Hepes (LONZA®, #BE17-737E) and 0.1% BSA (Miltenyi®, #130-091-376).
# JAR cells were resuspended in the described buffer. The compounds of interest and Sahenta-DY647 were diluted 200× with the described buffer.
# A total of 50,000 cells were pre-incubated for 30 min at 4° C. with the compounds of the present disclosure before adding the corresponding amount of Sahenta-DY647 (100 nM) to the minimal concentration at Bmax and incubating for an additional 30 min at 4° C. The total volume of the reaction was 100 μL (50 μL of cells, 25 μL of the compounds of the present disclosure, and 25 μL of Sahenta-DY647) in a U-bottom 96 well plate (Greiner®, #650-180). The plates were washed 2× by centrifugation (4 min, 400 rcf at 4° C.) in the same buffer. Cells were re-suspended in 70 μL of the buffer and 50 μL was transferred to a Black 384 Optiplate (PerkinElmer®, #6007279). Fluorescence (Ex=630 nm, Em=670 nm) was acquired on a Spectramax i3x (Molecular Devices®).
# Dose-response data from the compounds were analyzed with Graphpad Prism 9.1.1@software, using nonlinear regression applied to a sigmoidal dose-response model and the following equation:
# Y=Bottom+(Top-Bottom)/(1+10^((LogIC50−X)*HillSlope)), with a shared bottom and top between the test reagent and dipyridamole.
# Data from multiple experiments were compiled by taking the average pIC50 value for the reagent in question±the standard deviation (s.d.) and expressing it as an average IC50 value in nM.
# The inhibitory effect of the test compound was expressed as a percentage of the inhibition of SAHENTA-DY647 binding.
row,SMILES,IC50 [nM]
1,C[C@H]1O[C@@H](n2cnc3c(OCc4ccc(Cl)c(C(F)(F)F)c4)ncnc32)[C@H](O)[C@@H]1O [Compound 250],> 500
2,C[C@H]1O[C@@H](n2cnc3c(OCc4cccc(C#N)c4)ncnc32)[C@H](O)[C@@H]1O [Compound 221],> 500
3,C[C@H]1O[C@@H](n2c(NC3CC3)nc3c(N4CCc5ccc(C#N)cc5C4)ncnc32)[C@H](O)[C@@H]1O [Compound 164],20 to 500
4,Cc1cc(COc2ncnc3c2nc(NC2CCCC2)n3[C@@H]2O[C@H](C)[C@@H](O)[C@H]2O)ccc1[N+](=O)[O-] [Compound 86],< 1
5,C[C@H]1O[C@@H](n2cnc3c(CO[C@H]4CC[C@H](C(F)(F)F)CC4)ncnc32)[C@H](O)[C@@H]1O [Compound 371],> 500
6,C[C@H]1O[C@@H](n2c(NCCCS(C)(=O)=O)nc3c(N4CCc5ccc([N+](=O)[O-])cc5C4)ncnc32)[C@H](O)[C@@H]1O [Compound 143],< 1
7,C[C@H]1O[C@@H](n2c(N[C@H]3CC[C@@H](O)CC3)nc3c(OCc4ccc([N+](=O)[O-])cc4)ncnc32)[C@H](O)[C@@H]1O [Compound 56],< 1
8,C[C@H]1O[C@@H](n2c(O)nc3c(OCc4ccc([N+](=O)[O-])cc4)ncnc32)[C@H](O)[C@@H]1O [Compound 247],> 500
9,Cc1noc(CSc2ncnc3c2ncn3[C@@H]2O[C@H](C)[C@@H](O)[C@H]2O)n1 [Compound 397],> 500
10,C[C@H]1O[C@@H](n2cnc3c(OCCc4cnc(C#N)nc4)ncnc32)[C@H](O)[C@@H]1O [Compound 347],> 500
11,C[C@H]1O[C@@H](n2cnc3c(C(=O)NCc4ccccc4)ncnc32)[C@H](O)[C@@H]1O [Compound 417],> 500
12,C[C@H]1O[C@@H](n2cnc3c(SCc4ccc(C(=N)N)cc4)ncnc32)[C@H](O)[C@@H]1O [Compound 410],> 500
13,CC(C)(O)[C@H]1O[C@@H](n2cnc3c(SCc4ccc(OC(F)(F)F)cc4)ncnc32)[C@H](O)[C@@H]1O [Compound 262],> 500
14,COc1ncc(CNc2nc3c(OCc4ccc(C#N)cc4)ncnc3n2[C@@H]2O[C@H](C)[C@@H](O)[C@H]2O)cn1 [Compound 72],1 to 20
15,C[C@H]1O[C@@H](n2cnc3c(SCc4ccc(S(=O)(=O)N5CCCC5)cc4)ncnc32)[C@H](O)[C@@H]1O [Compound 391],> 500
16,C[C@H]1O[C@@H](n2c(NCCO)nc3c(OCc4ccc(C#N)cc4)ncnc32)[C@H](O)[C@@H]1O [Compound 41],20 to 500
17,C[C@H]1O[C@@H](n2cnc3c(SCc4cc(-c5ccco5)on4)ncnc32)[C@H](O)[C@@H]1O [Compound 359],> 500
18,"CC1OC(n2c(NC3CC(C)(O)C3)nc3c(N4CCc5ccc([N+](=O)[O-])cc5C4)ncnc32)C(O)C1O (single isomer, unassigned) [Compound 137]",< 1
19,C[C@H]1O[C@@H](n2c(NCCN3CCN(C)CC3)nc3c(OCc4ccc([N+](=O)[O-])cc4)ncnc32)[C@H](O)[C@@H]1O [Compound 33],20 to 500
20,C[C@H]1O[C@@H](n2c(N[C@H]3CC[C@@](C)(O)CC3)nc3c(OCc4ccc(F)cc4)ncnc32)[C@H](O)[C@@H]1O [Compound 130],1 to 20
21,C[C@H]1O[C@@H](n2c(N)nc3c(OCCc4ccc([N+](=O)[O-])cc4)ncnc32)[C@H](O)[C@@H]1O [Compound 215],20 to 500
22,CCOC(=O)/C=C/[C@H]1O[C@@H](n2cnc3c(OCc4ccc([N+](=O)[O-])cc4)ncnc32)[C@H](O)[C@@H]1O [Compound 169],20 to 500
23,C[C@H]1O[C@@H](n2cnc3c(OCc4ccc([N+](=O)[O-])cc4)nccc32)[C@H](O)[C@@H]1O [Compound 411],> 500

row,SMILES,IC50 [nM]
1,Cc1cc(CSc2ncnc3c2ncn3[C@@H]2O[C@H](C)[C@@H](O)[C@H]2O)cc(C)c1F [Compound 272],> 500
2,C[C@H]1O[C@@H](n2c(NC3CCCC3)nc3c(OCc4ccc(OC(F)(F)F)cc4)ncnc32)[C@H](O)[C@@H]1O [Compound 88],1 to 20
3,C[C@H]1O[C@@H](n2cnc3c(OCCc4ccc(C#N)cc4)ncnc32)[C@H](O)[C@@H]1O [Compound 249],> 500
4,Cc1nnc(CSc2ncnc3c2ncn3[C@@H]2O[C@H](C)[C@@H](O)[C@H]2O)o1 [Compound 398],> 500
5,C[C@H]1O[C@@H](n2c(NC3CCCC3)nc3c(OCc4ccc(C(F)(F)F)nc4)ncnc32)[C@H](O)[C@@H]1O [Compound 93],20 to 500
6,C[C@H]1O[C@@H](n2c(NC3CCC(O)CC3)nc3c(N4CCc5ccc([N+](=O)[O-])cc5C4)ncnc32)[C@H](O)[C@@H]1O (stereo partly shown) [Compound 140],< 1
7,Cc1ccc(COc2ncnc3c2nc(NC2CCCC2)n3[C@@H]2O[C@H](C)[C@@H](O)[C@H]2O)cc1 [Compound 90],1 to 20
8,CCNc1nc2c(OCc3ccc(C#N)cc3)ncnc2n1[C@@H]1O[C@H](C)[C@@H](O)[C@H]1O [Compound 37],1 to 20
9,C[C@H]1O[C@@H](n2c(N[C@H]3CC[C@@](C)(O)CC3)nc3c(OCc4ccc(Cl)cc4)ncnc32)[C@H](O)[C@@H]1O [Compound 128],1 to 20
10,COCCCNc1nc2c(N3CCc4ccc(C#N)cc4C3)ncnc2n1[C@@H]1O[C@H](C)[C@@H](O)[C@H]1O [Compound 160],1 to 20
11,C[C@H]1O[C@@H](n2c(NC3CCC(O)C3)nc3c(OCc4ccc(Cl)cc4)ncnc32)[C@H](O)[C@@H]1O (stereo partly shown) [Compound 101],20 to 500
12,C[C@H]1O[C@H](n2cnc3c(OCc4ccc(C#N)c(F)c4)nc(Cl)nc32)[C@H](O)[C@@H]1O [Compound 237],> 500
13,C[C@H]1O[C@@H](n2cnc3c(C(=O)N4CCc5ccc([N+](=O)[O-])cc5C4)ncnc32)[C@H](O)[C@@H]1O [Compound 360],> 500
14,C[C@H]1O[C@@H](n2cnc3c(C(=O)NCc4ccc([N+](=O)[O-])cc4)ncnc32)[C@H](O)[C@@H]1O [Compound 312],> 500
15,C[C@H]1O[C@@H](n2cnc3c(SCc4ccc5ccncc5c4)ncnc32)[C@H](O)[C@@H]1O [Compound 308],> 500
16,C[C@H]1O[C@@H](n2cnc3c(N4CC(c5ccc([N+](=O)[O-])cc5)C4)ncnc32)[C@H](O)[C@@H]1O [Compound 209],20 to 500
17,C[C@H]1O[C@@H](n2cnc3c(NCc4ccc(OC5CCOCC5)cc4)ncnc32)[C@H](O)[C@@H]1O [Compound 389],> 500
18,C[C@H]1O[C@@H](n2cnc3c(C(=O)NCc4ccc(OC(F)F)cc4)ncnc32)[C@H](O)[C@@H]1O [Compound 301],> 500
19,C[C@H]1O[C@@H](n2cnc3c(COc4ccc(OC(F)(F)F)cc4)ncnc32)[C@H](O)[C@@H]1O [Compound 288],> 500
20,CC(CCO)Nc1nc2c(OCc3ccc(F)cc3)ncnc2n1[C@@H]1O[C@H](C)[C@@H](O)[C@H]1O (stereo partly shown) [Compound 98],1 to 20
21,C[C@H]1O[C@@H](n2cnc3c(OCc4cc(F)c(C#N)c(F)c4)nc(Cl)nc32)[C@H](O)[C@@H]1O [Compound 284],> 500
22,CC(NC(=O)c1ncnc2c1ncn2[C@@H]1O[C@H](C)[C@@H](O)[C@H]1O)c1ccc([N+](=O)[O-])cc1 (stereo partly shown) [Compound 305],> 500
23,"CC1OC(n2c(NC3CC(C)(O)C3)nc3c(OCc4ccc([N+](=O)[O-])cc4)ncnc32)C(O)C1O (single isomer, unassigned) [Compound 133]",1 to 20
